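Exposure lasted 48 hours, with cells grown in 96-well plates and compounds tested at five concentrations. At the TGI there is no net growth.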
Legend:
Experiment in all cases: NCI-60 cell line screen, 48 h
[1] = system: 786-0 renal
[2] = system: A498 renal
[3] = system: A549 NSCLC
[4] = system: ACHN renal
[5] = system: BT-549 breast
[6] = system: CAKI-1 renal
[7] = system: CCRF-CEM leukemia
[8] = system: EKVX NSCLC
[9] = system: HCC-2998 colon
[10] = system: HCT-116 colon
[11] = system: HCT-15 colon
[12] = system: HL-60(TB) leukemia
[13] = system: HOP-62 NSCLC
[14] = system: HOP-92 NSCLC
[15] = system: HS 578T breast
[16] = system: HT29 colon
[17] = system: IGROV1 ovarian
[18] = system: KM12 colon
[19] = system: LOX IMVI melanoma
[20] = system: M14 melanoma
[21] = system: MALME-3M melanoma
[22] = system: MCF7 breast
[23] = system: MDA-MB-231 breast
[24] = system: MDA-MB-435
[25] = system: MDA-N
[26] = system: MOLT-4 leukemia
[27] = system: NCI-H226 lung
[28] = system: NCI-H23 lung
[29] = system: NCI-H460 lung
[30] = system: NCI-H522 lung
[31] = system: NCI/ADR-RES ovarian
[32] = system: OVCAR-3 ovarian
[33] = system: OVCAR-4 ovarian
[34] = system: OVCAR-5 ovarian
[35] = system: OVCAR-8 ovarian
[36] = system: PC-3 prostate
[37] = system: RPMI-8226 leukemia
[38] = system: RXF 393 renal
[39] = system: SF-268 CNS
[40] = system: SF-295 CNS
[41] = system: SF-539 CNS
[42] = system: SK-MEL-2 melanoma
[43] = system: SK-MEL-28 melanoma
[44] = system: SK-MEL-5 melanoma
[45] = system: SK-OV-3 ovarian
[46] = system: SN12C renal
[47] = system: SNB-19 CNS
[48] = system: SNB-75 CNS
[49] = system: SW-620 colon
[50] = system: T-47D breast
[51] = system: TK-10 renal
[52] = system: U251 CNS
[53] = system: UACC-257 melanoma
[54] = system: UACC-62 melanoma
[55] = system: UO-31 renal
[56] = system: COLO 205 colon
[57] = system: DU-145 prostate
[58] = system: K-562 leukemia

Cc1ccc2nc(NC(=O)C(=O)C3C(=O)NC(=S)NC3=O)sc2c1
TGI [1]: > 100 µM | TGI [2]: > 100 µM | TGI [3]: > 100 µM | TGI [4]: > 100 µM | TGI [5]: > 100 µM | TGI [6]: > 100 µM | TGI [7]: > 100 µM | TGI [8]: > 100 µM | TGI [9]: > 100 µM | TGI [10]: > 100 µM | TGI [11]: > 100 µM | TGI [12]: > 100 µM | TGI [13]: > 100 µM | TGI [14]: > 100 µM | TGI [15]: > 100 µM | TGI [16]: > 100 µM | TGI [17]: > 100 µM | TGI [18]: > 100 µM | TGI [19]: > 100 µM | TGI [20]: > 100 µM | TGI [21]: > 100 µM | TGI [22]: > 100 µM | TGI [23]: > 100 µM | TGI [24]: > 100 µM | TGI [25]: > 100 µM | TGI [26]: > 100 µM | TGI [27]: > 100 µM | TGI [28]: > 100 µM | TGI [29]: > 100 µM | TGI [30]: > 100 µM | TGI [31]: > 100 µM | TGI [32]: > 100 µM | TGI [33]: > 100 µM | TGI [34]: > 100 µM | TGI [35]: > 100 µM | TGI [36]: > 100 µM | TGI [37]: > 100 µM | TGI [38]: > 100 µM | TGI [39]: > 100 µM | TGI [40]: > 100 µM | TGI [41]: > 100 µM | TGI [42]: > 100 µM | TGI [43]: > 100 µM | TGI [44]: > 100 µM | TGI [45]: > 100 µM | TGI [46]: > 100 µM | TGI [47]: > 100 µM | TGI [48]: > 100 µM | TGI [49]: > 100 µM | TGI [50]: > 100 µM | TGI [51]: > 100 µM | TGI [52]: > 100 µM | TGI [53]: > 100 µM | TGI [54]: > 100 µM | TGI [55]: > 100 µM

CCCc1cc(=O)oc2c3c(c4c(c12)OC(C)(C)CC4)O[C@H](C)[C@@H](C)[C@H]3O
TGI [1]: 29.8 µM | TGI [3]: 64 µM | TGI [5]: 26.6 µM | TGI [6]: 35.1 µM | TGI [7]: 33.8 µM | TGI [56]: 33.6 µM | TGI [57]: 29.8 µM | TGI [8]: 26.2 µM | TGI [9]: 31.8 µM | TGI [10]: 29.4 µM | TGI [11]: 27.5 µM | TGI [13]: 35.3 µM | TGI [14]: 33.3 µM | TGI [15]: 50.2 µM | TGI [16]: 22.7 µM | TGI [17]: 30.8 µM | TGI [58]: 21.1 µM | TGI [18]: 28.7 µM | TGI [19]: 31.7 µM | TGI [20]: 37.2 µM | TGI [21]: 37.9 µM | TGI [22]: 43.2 µM | TGI [23]: 30.9 µM | TGI [24]: 25.7 µM | TGI [25]: 23.7 µM | TGI [26]: 27.8 µM | TGI [27]: 34.2 µM | TGI [28]: 30.3 µM | TGI [29]: 41.7 µM | TGI [31]: 33.1 µM | TGI [32]: 37.7 µM | TGI [33]: 28.6 µM | TGI [34]: 31.6 µM | TGI [35]: 32.6 µM | TGI [36]: 23.5 µM | TGI [37]: 18.8 µM | TGI [38]: 47.3 µM | TGI [39]: 35.1 µM | TGI [40]: 32 µM | TGI [41]: 41.9 µM | TGI [42]: 49.1 µM | TGI [44]: 29.3 µM | TGI [45]: 31.7 µM | TGI [46]: 34.3 µM | TGI [47]: 32.2 µM | TGI [48]: 31.3 µM | TGI [49]: 35.8 µM | TGI [50]: 29.8 µM | TGI [52]: 32.2 µM | TGI [53]: 28.1 µM | TGI [54]: 27.4 µM | TGI [55]: 26.7 µM

— PubChem BioAssay (NCI)
